According to publication PMC8151276, “An Integrated Approach toward NanoBRET Tracers for Analysis of GPCR Ligand Engagement” (Molecules, 2021):

Molecular target: T1, ADRA1B (Homo sapiens, UniProt P35368)
T1 construct: purchased Promega (in-house HiBiT-GPCR construct library, NanoBRET)
T1 sequence (P35368 1-520): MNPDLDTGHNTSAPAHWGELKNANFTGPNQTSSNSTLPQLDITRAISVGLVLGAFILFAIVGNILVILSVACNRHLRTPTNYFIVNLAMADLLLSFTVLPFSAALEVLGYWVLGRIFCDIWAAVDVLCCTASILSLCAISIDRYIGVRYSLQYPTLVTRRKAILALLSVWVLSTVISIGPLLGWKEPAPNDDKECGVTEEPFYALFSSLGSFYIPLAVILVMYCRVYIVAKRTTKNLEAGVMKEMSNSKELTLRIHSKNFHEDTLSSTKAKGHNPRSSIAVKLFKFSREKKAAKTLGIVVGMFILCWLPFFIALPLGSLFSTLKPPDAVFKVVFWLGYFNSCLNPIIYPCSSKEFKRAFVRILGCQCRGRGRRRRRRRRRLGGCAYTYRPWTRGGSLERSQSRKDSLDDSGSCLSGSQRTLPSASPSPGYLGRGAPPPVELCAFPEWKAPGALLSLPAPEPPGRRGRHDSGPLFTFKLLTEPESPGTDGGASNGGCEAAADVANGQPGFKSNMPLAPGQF
Experiment: NanoBRET screen HiBiT-ADRA1B in HEK293
Assay type: binding
Experimental: Each tracer candidate was screened across the entire library of HiBiT-GPCR constructs using NanoBRET as the detection modality. As depicted in Figure 4A, the specificity of interactions was evaluated through decrease in BRET due to competitive displacement of a bound tracer by excess parental compound. Each tracer was analyzed for binding to each HiBiT-GPCR fusion in the absence and in the presence of competing parental compound. Briefly, HEK293 cells were transfected with HiBiT-GPCR constructs diluted into promoterless DNA to reduce expression and maximize translocation to the cell surface. Each tracer candidate was then screened at concentrations of 1 μM and 0.1 μM across cells expressing these fusions. Cells were treated for 1.5 h with tracer either alone or in the presence of 20 μM competing parental compound (i.e., control). BRET was measured upon addition of purified LgBiT and subsequent complementation with HiBiT genetically fused to a GPCR. The specificity of interactions was assessed through a decrease in BRET signal due to competitive displacement of the bound tracer. To further gauge the robustness of these interactions, the fold response over the control (i.e., BRETtracer/BRETcontrol) was calculated. We chose a 1.5-fold response, which translates to ≥7-fold signal over noise as the minimal threshold required to score an interaction as positive.
HiBiT-GPCR DNA constructs were diluted in 10 mM Tris pH 8 to a final concentration of 0.01 μg/μL, arrayed in 96-well plates and stored at −20 °C. For transfection, HEK293 cells were suspended in Opti-MEM (without phenol red) supplemented with 2% fetal bovine serum (Seradigm) and 100 units/mL penicillin–streptomycin (Gibco) at a final concentration of 220,000 cells/mL and dispensed into white 96-well plates at 90 μL/well. Subsequent transfections and screens were carried using an Agilent Bravo Automated Liquid Handling Platform. First, the 96-well HiBiT DNA arrays were diluted 25-fold in Opti-MEM (without serum or phenol red) to a final concentration of 0.0004 μg/μL and 20 μL of the diluted DNAs were transferred into new 96-well plates. Next, promoterless carrier DNA (1 μg/μL) was diluted 25-fold (0.04 μg/μL) and then dispensed into the diluted arrays at 20 μL/well. Following brief mixing, Viafect transfection reagent (Promega) diluted 16-fold into Opti-MEM was dispensed into the plates at 40 μL/well. After mixing by pipetting, plates were incubated for 10 min on the pipetting station deck. The DNA-transfection reagent complexes were then added to plates containing cells. To facilitate the screen, 10 μL of DNA-transfection reagent complexes were added in duplicates to the top 4 and bottom 4 rows, resulting in two identical 48-well arrays per plate. Plates with transfected cells were incubated for 18–20 h at 37 °C/5% CO2. A screen of each tracer across the entire library using two different concentrations requires duplicate plates of transfected cells. Depending on the number of tracers being screened, transfections can be scaled up using the same ratios. The next day, for each tracer, four 20× screening solutions in tracer dilution buffer (Promega) were prepared: two duplicates at final concentration of 20 μM and two duplicates at a final concentration of 2 μM. […] The four resulting solutions were diluted 4-fold in Opti-MEM without serum or phenol red to generate 5× solutions (5 µM and 0.5 µM tracer +/− 100 μM competing compound). To screen the library, a BioTek MultiFlo FX liquid dispenser was used to dispense 22.5 µL of tracer solution to the top 4 rows and 22.5 µL tracer + competing compound solution to the 4 bottom rows. Plates were briefly mixed on an orbital shaker and incubated for 1.5 h at room temperature. […] Plates were briefly mixed on an orbital shaker and incubated for 15 min to allow complementation.

| Structure (SMILES) | NanoBRET Fold Response (ADRA1B, tracer 0.1μM) | NanoBRET Fold Response (ADRA1B, tracer 1μM) | other results |
| --- | --- | --- | --- |
| O=C(CCOCCOCCOCCOCCNC(=O)CCc1ccc2n1[B-](F)(F)[N+]1=C(c3ccc[nH]3)C=CC1=C2)NCCCN1CCN(C2=Nc3ccccc3Oc3ccc(Cl)cc32)CC1 [Loxapine-a-2-NB590] | 1.78 | 1.54 |  |
| CCCn1c(=O)c2[nH]c(-c3ccc(OCC(=O)NCCNC(=O)CCOCCNC(=O)c4ccc(CNC(=O)CCc5ccc6n5[B-](F)(F)[N+]5=C(c7ccc[nH]7)C=CC5=C6)cc4)cc3)nc2n(CCC)c1=O [XAC-3-NB590] | 1.05 | 1.17 |  |
| CN(C)CCC=C1c2ccccc2CCc2ccc(C(=O)NCCNC(=O)CCOCCOCCOCCOCCNC(=O)CCc3ccc4n3[B-](F)(F)[N+]3=C(c5ccc[nH]5)C=CC3=C4)cc21 [Amitriptyline-a-2-NB590] |  |  | NanoBRET Fold Response (tracer at 0.1μM): 1.19; NanoBRET Fold Response (tracer at 1μM): 1.46 |
| COc1ccccc1N1CCN(CCCCN2C(=O)c3ccc(CNC(=O)CCOCCOCCOCCOCCNC(=O)CCc4ccc5n4[B-](F)(F)[N+]4=C(c6ccc[nH]6)C=CC4=C5)cc3C2=O)CC1 [NAN-190-2-NB590] | 1.80 | 1.59 |  |
| O=C(CCc1ccc2n1[B-](F)(F)[N+]1=C(c3ccc[nH]3)C=CC1=C2)NCc1ccc(C(=O)NCCOCCOCCNCC(O)COc2cccc3ccccc23)cc1 (stereo not shown) [Propranolol-3-NB590] |  |  | NanoBRET Fold Response (ADRA1B, 0.1μM): 1.14; NanoBRET Fold Response (ADRA1B, 1μM): 1.10 |
| COc1ccccc1N1CCN(CCCCN2C(=O)c3ccc(CNC(=O)CCOCCNC(=O)c4ccc(CNC(=O)CCc5ccc6n5[B-](F)(F)[N+]5=C(c7ccc[nH]7)C=CC5=C6)cc4)cc3C2=O)CC1 [NAN-190-3-NB590] | 1.70 | 1.72 |  |
| O=C(CCc1ccc2n1[B-](F)(F)[N+]1=C(c3ccc[nH]3)C=CC1=C2)NCc1ccc(C(=O)NCCOCCC(=O)N[C@@H]2CC[C@@]3(O)[C@H]4Cc5ccc(O)c6c5[C@@]3(CCN4CC3CC3)[C@H]2O6)cc1 [Naltrexone-3-NB590] | 0.53 | 0.79 |  |
| CCOC(=O)c1cc(C#N)c(N2CCC(C(=O)NS(=O)(=O)Cc3ccccc3/C=C/C(=O)NCCNC(=O)CCc3ccc4n3[B-](F)(F)[N+]3=C(c5ccc[nH]5)C=CC3=C4)CC2)nc1C [AZD1283-1-NB590] |  |  | NanoBRET Fold Response (ADRA1B, 0.1μM): 1.08; NanoBRET Fold Response (ADRA1B, 1μM): 1.06 |
| COc1ccc2[nH]c(-c3ccc(CNC(=O)CCOCCOCCOCCOCCNC(=O)CCc4ccc5n4[B-](F)(F)[N+]4=C(c6ccc[nH]6)C=CC4=C5)cc3)c(CCNC(C)=O)c2n1 [AzomelatoninICO9-2-NB590] |  |  | NanoBRET Fold Response (0.1μM tracer): 0.91; NanoBRET Fold Response (1μM tracer): 0.97 |
| CC(C)N(CC[C@H](c1ccccc1)c1cc(CCNC(=O)CCOCCOCCOCCOCCNC(=O)CCc2ccc3n2[B-](F)(F)[N+]2=C(c4ccc[nH]4)C=CC2=C3)ccc1O)C(C)C [Tolterodine-2-NB590] | 1.16 | 1.06 |  |
| N#CN=C(NCCCOc1cccc(CN2CCCCC2)c1)NCCNC(=O)CCOCCOCCOCCOCCNC(=O)CCc1ccc2n1[B-](F)(F)[N+]1=C(c3ccc[nH]3)C=CC1=C2 [Aminopotentidine-2-NB590] | 1.10 | 1.01 |  |
| COc1ccc2c(n1)c(CCNC(C)=O)cn2CCNC(=O)CCc1ccc2n1[B-](F)(F)[N+]1=C(c3ccc[nH]3)C=CC1=C2 [Azamelatonin-1-NB590] |  |  | NanoBRET Fold Response (0.1μM tracer): 0.97; NanoBRET Fold Response (1μM tracer): 0.88 |
| CN(CCC=C1c2ccccc2CCc2ccccc21)C(=O)CCOCCOCCOCCOCCNC(=O)CCc1ccc2n1[B-](F)(F)[N+]1=C(c3ccc[nH]3)C=CC1=C2 [Amitriptyline-e-2-NB590] |  |  | NanoBRET Fold Response (tracer at 1μM): 1.04 |
| N#CN/C(=N\CCNC(=O)c1ccc(N)cc1)NCCCOc1cccc(CN2CCCCC2)c1 [Aminopotentidine (unmodified)] |  |  | NanoBRET Fold Response (ADRA1B, other tracers/Aminopotentidine (unmodified), 0.1μM): 1.03; NanoBRET Fold Response (ADRA1B, other tracers/Aminopotentidine (unmodified), 1μM): 0.99 |
| CC(C)N(CC[C@H](c1ccccc1)c1cc(CCNC(=O)c2ccc(CNC(=O)CCc3ccc4n3[B-](F)(F)[N+]3=C(c5ccc[nH]5)C=CC3=C4)cc2)ccc1O)C(C)C [Tolterodine-BZ-NB590] | 1.17 | 1.05 |  |
| O=C(CCc1ccc2n1[B-](F)(F)[N+]1=C(c3ccc[nH]3)C=CC1=C2)NCCOCCOCCNC(=O)OCCOCCN1CCN(C2=Nc3ccccc3Sc3ccccc32)CC1 [Quetiapine-a-2-NB590] | 1.52 | 1.59 |  |
| Cc1cc2c(s1)Nc1ccccc1N=C2N1CCN(CCCNC(=O)CCOCCOCCOCCOCCNC(=O)CCc2ccc3n2[B-](F)(F)[N+]2=C(c4ccc[nH]4)C=CC2=C3)CC1 [Olanzapine-a-2-NB590] | 1.26 | 1.98 |  |
| CN(C)CCC=C1c2ccccc2CCc2ccc(C(=O)NCCNC(=O)CCOCCOCCOCCOCCNC(=O)CCc3ccc4n3[B-](F)(F)[N+]3=C(c5ccc[nH]5)C=CC3=C4)cc21 [Amitriptyline-b-2-NB590] |  |  | NanoBRET Fold Response (tracer at 0.1μM, listed as amitriptyline-b-2-NB590): 1.73; NanoBRET Fold Response (tracer at 1μM, listed as amitriptyline-b-2-NB590): 1.67 |
| O=C(CCOCCOCCOCCOCCNC(=O)CCc1ccc2n1[B-](F)(F)[N+]1=C(c3ccc[nH]3)C=CC1=C2)NCCCN1CCN(C2=Nc3cc(Cl)ccc3Nc3ccccc32)CC1 [Clozapine-a-2-NB590] |  |  | NanoBRET Fold Response (ADRA1B, 0.1μM tracer): 1.65; NanoBRET Fold Response (ADRA1B, 1μM tracer): 1.52 |
